Laboratory results: PubChem BioAssay AID212 (DTP/NCI, 2004)
Values joined by “and” are separate entries in the source; they are usually repeats but may differ in a detail not shown here. Equal entries are not always repeated. Inconclusive results are not listed. Where a SMILES comes first, the peptide text is derived from it. The star is where a group is joined. Trt = c1ccc(C(c2ccccc2)(c2ccccc2)*)cc1; Cbz = O=C(OCc1ccccc1)*

Test system: BDF1 mice, colon carcinoma 38 sc, T/C %
Assay: NCI In Vivo Anticancer Drug Screen. Data for tumor model Colon Carcinoma 38 (subcutaneous) in B6D2F1 (BDF1) mice
Details: endpoint: median tumor weight (est.), higher = larger tumour
Procedure, shortened: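 Mice with transplanted tumors are treated with compound or vehicle. Survival or tumor size is then measured in both groups. The ratio of treated to control gives the reported figure.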

[1] = dose: 12.5 mg/kg/injection, schedule: Q07DX002 (ip), vehicle: saline with Tween-80
[2] = dose: 4.0 mg/kg/injection, schedule: Q07DX002 (ip), vehicle: saline
[3] = dose: 25.0 mg/kg/injection, schedule: Q07DX002 (ip), vehicle: saline
[4] = dose: 50.0 mg/kg/injection, schedule: Q07DX002 (ip), vehicle: saline
[5] = dose: 100.0 mg/kg/injection, schedule: Q07DX002 (ip), vehicle: saline
[6] = dose: 200.0 mg/kg/injection, schedule: Q07DX002 (ip), vehicle: saline
[7] = dose: 12.5 mg/kg/injection, schedule: Q07DX002 (ip), vehicle: saline

Question: `Clc1ccc(C(c2ccc(Cl)cc2)C(Cl)(Cl)Cl)cc1` was tested. Which T/C (dose: 4.0 mg/kg/injection, schedule: Q07DX002 (ip), vehicle: Klucel (hydroxypropylcellulose) (HPC)) did it give?
Answer: 123 % of control

Question: What about the T/C (dose: 8.0 mg/kg/injection, schedule: Q07DX002 (ip), vehicle: Klucel (hydroxypropylcellulose) (HPC)) of the same compound?
Answer: 94 % of control

Question: What about the T/C (dose: 16.0 mg/kg/injection, schedule: Q07DX002 (ip), vehicle: Klucel (hydroxypropylcellulose) (HPC)) of the same compound?
Answer: 112 % of control

Question: And the T/C (dose: 32.0 mg/kg/injection, schedule: Q07DX002 (ip), vehicle: Klucel (hydroxypropylcellulose) (HPC))?
Answer: 122 % of control

Question: Which results are given for `CC[N+](CC)(CC)CC`?
Answer: T/C (dose: 1.56 mg/kg/injection, schedule: Q07DX002 (ip), vehicle: saline with Tween-80): 96 % of control; T/C (dose: 3.12 mg/kg/injection, schedule: Q07DX002 (ip), vehicle: saline with Tween-80): 119 % of control; T/C (dose: 6.25 mg/kg/injection, schedule: Q07DX002 (ip), vehicle: saline with Tween-80): 86 % of control; T/C [1]: 59 % of control

Question: With `CC(=O)NC(C=O)OCC=O` (centres undefined) as the compound, how does the T/C (dose: 12.5 mg/kg/injection, schedule: Q07DX002 (ip), vehicle: water) read?
Answer: 92 % of control

Question: What about the T/C (dose: 400.0 mg/kg/injection, schedule: Q07DX002 (ip), vehicle: water) of the same compound?
Answer: 152 % of control

Question: Which results are given for `C=C1C(=O)OCC1C(=O)O` (centres undefined)?
Answer: T/C [2]: 290 % of control; T/C (dose: 8.0 mg/kg/injection, schedule: Q07DX002 (ip), vehicle: saline): 281 % of control; T/C (dose: 16.0 mg/kg/injection, schedule: Q07DX002 (ip), vehicle: saline): 297 % of control; T/C (dose: 32.0 mg/kg/injection, schedule: Q07DX002 (ip), vehicle: saline): 278 % of control; T/C (dose: 64.0 mg/kg/injection, schedule: Q07DX002 (ip), vehicle: saline): 344 % of control

Question: For `C[n+]1ccc(Nc2ccc(NC(=O)c3ccc(Nc4cc[n+](C)c5ccc(N)cc45)cc3)cc2)cc1`, which T/C (dose: 0.5 mg/kg/injection, schedule: Q07DX002 (ip), vehicle: water) is on record?
Answer: 99 % of control

Question: What about the T/C (dose: 1.0 mg/kg/injection, schedule: Q07DX002 (ip), vehicle: water) of the same compound?
Answer: 86 % of control

Question: What about the T/C (dose: 2.0 mg/kg/injection, schedule: Q07DX002 (ip), vehicle: water) of the same compound?
Answer: 93 % of control

Question: How did the T/C (dose: 25.0 mg/kg/injection, schedule: Q07DX002 (ip), vehicle: distilled water + Tween-80) turn out when `COC(=O)C(CSC(c1ccccc1)(c1ccccc1)c1ccccc1)NC(=O)C(CC(N)=O)NC(=O)OCc1ccccc1` (stereo not drawn) (Cbz-Asn-Cys(Trt)-OMe; configuration not given here) was run?
Answer: 95 % of control

Question: What about the T/C (dose: 50.0 mg/kg/injection, schedule: Q07DX002 (ip), vehicle: distilled water + Tween-80) of the same compound?
Answer: 60 % of control

Question: And the T/C (dose: 100.0 mg/kg/injection, schedule: Q07DX002 (ip), vehicle: distilled water + Tween-80)?
Answer: 95 % of control

Question: And the T/C (dose: 200.0 mg/kg/injection, schedule: Q07DX002 (ip), vehicle: distilled water + Tween-80)?
Answer: 84 % of control and 88 % of control

Question: And the T/C (dose: 400.0 mg/kg/injection, schedule: Q07DX002 (ip), vehicle: distilled water + Tween-80)?
Answer: 77 % of control

Question: And the T/C (dose: 800.0 mg/kg/injection, schedule: Q07DX002 (ip), vehicle: distilled water + Tween-80)?
Answer: 56 % of control

Question: With `COC1=C(Br)[C@H](O)[C@](O)(CC#N)C=C1Br` as the compound, how does the T/C (dose: 8.75 mg/kg/injection, schedule: Q07DX002 (ip), vehicle: Klucel (hydroxypropylcellulose) (HPC)) read?
Answer: 52 % of control

Question: And the T/C (dose: 17.5 mg/kg/injection, schedule: Q07DX002 (ip), vehicle: Klucel (hydroxypropylcellulose) (HPC))?
Answer: 80 % of control

Question: What about the T/C (dose: 35.0 mg/kg/injection, schedule: Q07DX002 (ip), vehicle: Klucel (hydroxypropylcellulose) (HPC)) of the same compound?
Answer: 49 % of control

Question: And the T/C (dose: 70.0 mg/kg/injection, schedule: Q07DX002 (ip), vehicle: Klucel (hydroxypropylcellulose) (HPC))?
Answer: 105 % of control

Question: What about the T/C (dose: 140.0 mg/kg/injection, schedule: Q07DX002 (ip), vehicle: Klucel (hydroxypropylcellulose) (HPC)) of the same compound?
Answer: 70 % of control

Question: And the T/C (dose: 280.0 mg/kg/injection, schedule: Q07DX002 (ip), vehicle: Klucel (hydroxypropylcellulose) (HPC))?
Answer: 56 % of control

Question: Which T/C [1] does the source give for `C[n+]1c(/C=N/NC(N)=S)ccc2ccccc21` here?
Answer: 115 % of control

Question: What about the T/C (dose: 25.0 mg/kg/injection, schedule: Q07DX002 (ip), vehicle: saline with Tween-80) of the same compound?
Answer: 83 % of control

Question: What about the T/C (dose: 50.0 mg/kg/injection, schedule: Q07DX002 (ip), vehicle: saline with Tween-80) of the same compound?
Answer: 77 % of control

Question: What about the T/C (dose: 100.0 mg/kg/injection, schedule: Q07DX002 (ip), vehicle: saline with Tween-80) of the same compound?
Answer: 87 % of control

Question: And the T/C (dose: 200.0 mg/kg/injection, schedule: Q07DX002 (ip), vehicle: saline with Tween-80)?
Answer: 108 % of control

Question: And the T/C (dose: 400.0 mg/kg/injection, schedule: Q07DX002 (ip), vehicle: saline with Tween-80)?
Answer: 118 % of control

Question: Which results are given for `CCCCNC(C)C1(O)Cc2c(O)c3c(c(O)c2C(OC2CC(N)C(O)C(C)O2)C1)C(=O)c1c(OC)cccc1C3=O` (centres undefined)?
Answer: T/C (dose: 40.0 mg/kg/injection, schedule: Q07DX002 (ip), vehicle: saline): 95 % of control; T/C (dose: 80.0 mg/kg/injection, schedule: Q07DX002 (ip), vehicle: saline): 101 % of control; T/C (dose: 160.0 mg/kg/injection, schedule: Q07DX002 (ip), vehicle: saline): 116 % of control; T/C (dose: 320.0 mg/kg/injection, schedule: Q07DX002 (ip), vehicle: saline): 47 % of control

Question: What does the source list for `C=CCc1cn(C2CC(O)C(CO)O2)c(=O)[nH]c1=O` (centres undefined)?
Answer: T/C [3]: 85 % of control; T/C [4]: 78 % of control; T/C [5]: 62 % of control and 65 % of control

Question: With `CC[C@]1(O)C[C@H]2CN(CCc3c([nH]c4ccccc34)[C@@](C(=O)OC)(c3cc4c(cc3OC)N(C)[C@H]3[C@@](O)(C(=O)OC)[C@H](OC(C)=O)[C@]5(CC)C=CCN6CC[C@]43[C@@H]65)C2)C1` as the compound, how does the T/C [2] read?
Answer: 20 % of control and 22 % of control

Question: What does the source list for `CCOc1cc2c(cc1C(C)c1ccc(OC)cc1)OCO2` (centres undefined)?
Answer: T/C (dose: 50.0 mg/kg/injection, schedule: Q07DX002 (ip), vehicle: distilled water + Tween-80 + alcohol): 72 % of control; T/C (dose: 100.0 mg/kg/injection, schedule: Q07DX002 (ip), vehicle: distilled water + Tween-80 + alcohol): 100 % of control; T/C (dose: 400.0 mg/kg/injection, schedule: Q07DX002 (ip), vehicle: distilled water + Tween-80 + alcohol): 100 % of control

Question: With `O=c1ncccn1[C@@H]1O[C@H](CO)[C@H](O)C1O` (some centres undefined) as the compound, how does the T/C [4] read?
Answer: 61 % of control and 82 % of control

Question: And the T/C [5]?
Answer: 65 % of control and 75 % of control

Question: And the T/C [6]?
Answer: 66 % of control and 84 % of control

Question: What about the T/C (dose: 400.0 mg/kg/injection, schedule: Q07DX002 (ip), vehicle: saline) of the same compound?
Answer: 62 % of control and 66 % of control

Question: What about the T/C (dose: 800.0 mg/kg/injection, schedule: Q07DX002 (ip), vehicle: saline) of the same compound?
Answer: 67 % of control and 74 % of control

Question: `COC1=NCN=C2SC=C(N)N=C12` was tested. Which T/C (dose: 6.25 mg/kg/injection, schedule: Q07DX002 (ip), vehicle: saline) did it give?
Answer: 102 % of control

Question: What about the T/C [7] of the same compound?
Answer: 91 % of control

Question: And the T/C (dose: 12.5 mg/kg/injection, schedule: Q07DX003 (ip), vehicle: saline)?
Answer: 104 % of control

Question: What about the T/C [3] of the same compound?
Answer: 101 % of control

Question: And the T/C [4]?
Answer: 85 % of control

Question: What about the T/C (dose: 50.0 mg/kg/injection, schedule: Q07DX003 (ip), vehicle: saline) of the same compound?
Answer: 151 % of control

Question: And the T/C (dose: 100.0 mg/kg/injection, schedule: Q07DX003 (ip), vehicle: saline)?
Answer: 154 % of control

Question: `CC(C)(O)/C=C/C(=O)[C@](C)(O)[C@H]1[C@H](O)C[C@@]2(C)[C@@H]3CC=C4[C@@H](C[C@H](O)C(=O)C4(C)C)[C@]3(C)C(=O)C[C@]12C` was tested. Which T/C (dose: 0.25 mg/kg/injection, schedule: Q07DX002 (ip), vehicle: saline + Tween-80 + alcohol) did it give?
Answer: 95 % of control

Question: What about the T/C (dose: 0.5 mg/kg/injection, schedule: Q07DX002 (ip), vehicle: saline + Tween-80 + alcohol) of the same compound?
Answer: 106 % of control

Question: And the T/C (dose: 1.0 mg/kg/injection, schedule: Q07DX002 (ip), vehicle: saline + Tween-80 + alcohol)?
Answer: 65 % of control

Question: What does the source list for `COc1cc(C(=O)c2cc3c(cc2C)OCO3)cc(OC)c1OC`?
Answer: T/C (dose: 12.5 mg/kg/injection, schedule: Q07DX002 (ip), vehicle: Klucel (hydroxypropylcellulose) (HPC)): 77 % of control; T/C (dose: 25.0 mg/kg/injection, schedule: Q07DX002 (ip), vehicle: Klucel (hydroxypropylcellulose) (HPC)): 75 % of control and 84 % of control; T/C (dose: 50.0 mg/kg/injection, schedule: Q07DX002 (ip), vehicle: Klucel (hydroxypropylcellulose) (HPC)): 112 % of control and 95 % of control; T/C (dose: 200.0 mg/kg/injection, schedule: Q07DX002 (ip), vehicle: Klucel (hydroxypropylcellulose) (HPC)): 79 % of control and 102 % of control

Question: What does the source list for `O=C[C@@H](CO)O[C@H](C=O)c1c[nH]c(=O)[nH]c1=O`?
Answer: T/C [7]: 121 % of control; T/C [4]: 83 % of control; T/C [5]: 121 % of control; T/C [6]: 57 % of control

Question: Which T/C (dose: 0.12 mg/kg/injection, schedule: Q07DX002 (ip), vehicle: Klucel (hydroxypropylcellulose) (HPC)) does the source give for `NC(=O)C#CC(N)=O` here?
Answer: 88 % of control

Question: And the T/C (dose: 0.23 mg/kg/injection, schedule: Q07DX002 (ip), vehicle: Klucel (hydroxypropylcellulose) (HPC))?
Answer: 97 % of control

Question: And the T/C (dose: 0.45 mg/kg/injection, schedule: Q07DX002 (ip), vehicle: Klucel (hydroxypropylcellulose) (HPC))?
Answer: 85 % of control

Question: And the T/C (dose: 0.9 mg/kg/injection, schedule: Q07DX002 (ip), vehicle: Klucel (hydroxypropylcellulose) (HPC))?
Answer: 91 % of control
